Publication PMC3679108, “A Novel Glucagon-Related Peptide (GCRP) and Its Receptor GCRPR Account for Coevolution of Their Family Members in Vertebrates” (PLoS ONE, 2013)
Peptide text beside a SMILES is read from it.

Tests used:
Format in all cases: cell-based
[1] = biological target: T1, huGLP2R (Homo sapiens, UniProt O95838); experiment: CRE-luc reporter assay, huGLP2R; details: Table 3, HEK293T, 6 h, mean ± S.E. of at least three independent experiments, NR = no response
T1 construct: host or cells: HEK293T
T1 sequence (O95838 1-553): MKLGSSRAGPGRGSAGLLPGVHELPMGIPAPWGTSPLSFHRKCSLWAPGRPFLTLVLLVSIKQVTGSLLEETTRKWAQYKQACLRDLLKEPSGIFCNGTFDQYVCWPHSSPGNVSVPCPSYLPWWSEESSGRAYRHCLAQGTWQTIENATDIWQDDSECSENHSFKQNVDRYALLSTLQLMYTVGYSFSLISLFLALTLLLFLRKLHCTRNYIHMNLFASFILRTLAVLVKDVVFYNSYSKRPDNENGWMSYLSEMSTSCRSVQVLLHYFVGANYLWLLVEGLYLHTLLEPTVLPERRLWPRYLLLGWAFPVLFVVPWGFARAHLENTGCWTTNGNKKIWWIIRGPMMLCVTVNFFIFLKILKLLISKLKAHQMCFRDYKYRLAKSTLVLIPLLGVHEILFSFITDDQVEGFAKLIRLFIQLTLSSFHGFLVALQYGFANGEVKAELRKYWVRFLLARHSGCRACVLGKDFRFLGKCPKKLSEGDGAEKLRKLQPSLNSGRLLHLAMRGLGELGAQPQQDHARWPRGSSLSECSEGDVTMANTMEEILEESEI

[2] = biological target: T2, huGCGR (Homo sapiens, UniProt P47871); experiment: CRE-luc reporter assay, huGCGR; details: Table 3, HEK293T, 6 h, mean ± S.E. of at least three independent experiments, NR = no response
T2 construct: host or cells: HEK293T

[3] = biological target: T3, huGIPR (Homo sapiens, UniProt P48546); experiment: CRE-luc reporter assay, huGIPR; details: Table 3, HEK293T, 6 h, mean ± S.E. of at least three independent experiments, NR = no response
T3 construct: expressed in transfected cells; host or cells: HEK293T
T3 sequence (P48546 22-466): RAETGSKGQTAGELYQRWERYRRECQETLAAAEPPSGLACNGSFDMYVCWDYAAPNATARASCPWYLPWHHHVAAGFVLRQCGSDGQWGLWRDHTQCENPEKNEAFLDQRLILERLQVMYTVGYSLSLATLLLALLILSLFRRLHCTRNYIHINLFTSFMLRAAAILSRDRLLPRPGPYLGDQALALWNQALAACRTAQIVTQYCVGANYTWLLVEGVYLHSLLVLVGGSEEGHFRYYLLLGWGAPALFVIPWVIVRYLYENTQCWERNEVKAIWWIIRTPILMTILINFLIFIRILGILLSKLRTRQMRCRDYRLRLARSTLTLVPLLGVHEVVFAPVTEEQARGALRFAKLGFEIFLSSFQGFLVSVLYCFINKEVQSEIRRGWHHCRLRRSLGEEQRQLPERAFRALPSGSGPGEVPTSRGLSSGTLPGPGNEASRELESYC

[4] = biological target: huGLP1R (Homo sapiens, UniProt P43220); experiment: CRE-luc reporter assay, huGLP1R; details: Table 3, HEK293T, 6 h, mean ± S.E. of at least three independent experiments
Sequence of huGLP1R (P43220 24-463): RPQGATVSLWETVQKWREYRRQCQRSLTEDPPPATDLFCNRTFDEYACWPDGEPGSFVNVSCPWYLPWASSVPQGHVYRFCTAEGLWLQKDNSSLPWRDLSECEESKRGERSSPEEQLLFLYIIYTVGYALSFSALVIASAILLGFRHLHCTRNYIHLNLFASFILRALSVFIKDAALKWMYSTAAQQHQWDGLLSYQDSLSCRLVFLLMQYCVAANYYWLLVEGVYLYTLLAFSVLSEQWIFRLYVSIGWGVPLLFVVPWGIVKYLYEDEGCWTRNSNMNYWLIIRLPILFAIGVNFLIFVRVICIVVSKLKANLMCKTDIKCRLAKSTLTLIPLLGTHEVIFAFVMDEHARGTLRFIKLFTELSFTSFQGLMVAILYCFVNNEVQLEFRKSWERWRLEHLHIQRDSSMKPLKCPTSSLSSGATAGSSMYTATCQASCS

T2 sequence (P47871 26-477): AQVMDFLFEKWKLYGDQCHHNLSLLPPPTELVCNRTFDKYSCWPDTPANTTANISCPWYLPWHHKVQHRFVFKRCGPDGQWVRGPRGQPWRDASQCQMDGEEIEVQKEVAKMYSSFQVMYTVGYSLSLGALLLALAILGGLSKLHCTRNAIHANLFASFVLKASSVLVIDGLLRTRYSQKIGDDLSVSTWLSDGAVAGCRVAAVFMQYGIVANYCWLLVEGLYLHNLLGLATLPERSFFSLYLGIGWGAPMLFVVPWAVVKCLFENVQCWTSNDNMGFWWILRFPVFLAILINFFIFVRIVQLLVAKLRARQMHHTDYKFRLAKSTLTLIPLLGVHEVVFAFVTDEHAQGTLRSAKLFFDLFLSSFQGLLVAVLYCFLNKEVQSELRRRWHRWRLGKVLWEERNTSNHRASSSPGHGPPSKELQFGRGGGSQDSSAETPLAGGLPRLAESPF

| Structure (SMILES) | EC50 [1] [µM] | EC50 [2] [µM] | EC50 [3] [µM] | EC50 [4] [µM] |
| --- | --- | --- | --- | --- |
| CC[C@H](C)[C@H](NC(=O)[C@H](CC(C)C)NC(=O)[C@H](Cc1c[nH]c2ccccc12)NC(=O)[C@H](Cc1c[nH]cn1)NC(=O)[C@@H](NC(=O)[C@H](Cc1ccccc1)NC(=O)[C@H](CC(=O)O)NC(=O)[C@H](CCCCN)NC(=O)[C@H](C)NC(=O)[C@H](CCCCN)NC(=O)[C@H](CCSC)NC(=O)[C@H](CCCCN)NC(=O)[C@H](CC(=O)O)NC(=O)[C@H](CC(C)C)NC(=O)[C@H](Cc1ccc(O)cc1)NC(=O)[C@H](CCCNC(=N)N)NC(=O)[C@@H](NC(=O)[C@H](Cc1ccccc1)NC(=O)[C@H](CC(=O)O)NC(=O)[C@H](CO)NC(=O)[C@@H](NC(=O)[C@H](Cc1ccccc1)NC(=O)[C@@H](NC(=O)CNC(=O)[C@H](CCC(=O)O)NC(=O)[C@H](CO)NC(=O)[C@@H](N)Cc1c[nH]cn1)[C@@H](C)O)[C@@H](C)O)[C@@H](C)O)C(C)C)C(=O)N[C@@H](CC(N)=O)C(=O)N[C@H](C(=O)O)[C@@H](C)O [chGCRP] (H-HSEGTFTSDFTRYLDKMKAKDFVHWLINT-OH) | 0.592 ± 0.127 | 0.0427 ± 0.0145 | > 10 | 0.0489 ± 0.00915 |
| CSCC[C@H](NC(=O)[C@H](CC(C)C)NC(=O)[C@H](Cc1c[nH]c2ccccc12)NC(=O)[C@H](CCC(N)=O)NC(=O)[C@@H](NC(=O)[C@H](Cc1ccccc1)NC(=O)[C@H](CC(=O)O)NC(=O)[C@H](CCCCN)NC(=O)[C@H](C)NC(=O)[C@H](CCCCN)NC(=O)[C@H](CCSC)NC(=O)[C@H](CCCCN)NC(=O)[C@H](CC(=O)O)NC(=O)[C@H](CC(C)C)NC(=O)[C@H](Cc1ccc(O)cc1)NC(=O)[C@H](CCCNC(=N)N)NC(=O)[C@@H](NC(=O)[C@H](CC(C)C)NC(=O)[C@H](CC(=O)O)NC(=O)[C@H](CO)NC(=O)[C@H](CO)NC(=O)[C@H](Cc1ccccc1)NC(=O)[C@@H](NC(=O)CNC(=O)[C@H](CCC(=O)O)NC(=O)[C@H](CO)NC(=O)[C@@H](N)Cc1c[nH]cn1)[C@@H](C)O)[C@@H](C)O)C(C)C)C(=O)N[C@@H](CC(N)=O)C(=O)O [xeGCRP] (H-HSEGTFSSDLTRYLDKMKAKDFVQWLMN-OH) | > 10 | 0.182 ± 0.0395 | > 10 | > 1 |
| CC[C@H](C)[C@H](NC(=O)[C@H](C)NC(=O)[C@H](C)NC(=O)[C@H](CC(C)C)NC(=O)[C@H](Cc1c[nH]c2ccccc12)NC(=O)[C@H](CCC(=O)O)NC(=O)[C@@H](NC(=O)[C@H](Cc1ccccc1)NC(=O)[C@H](CC(N)=O)NC(=O)[C@H](CCCCN)NC(=O)[C@H](C)NC(=O)[C@H](CCCCN)NC(=O)[C@H](CCSC)NC(=O)[C@H](CCCCN)NC(=O)[C@H](CC(=O)O)NC(=O)[C@H](CC(C)C)NC(=O)[C@H](Cc1ccc(O)cc1)NC(=O)[C@H](CC(N)=O)NC(=O)[C@@H](NC(=O)[C@H](CC(C)C)NC(=O)[C@H](CC(=O)O)NC(=O)[C@H](CO)NC(=O)[C@@H](NC(=O)[C@H](Cc1ccccc1)NC(=O)[C@H](CCSC)NC(=O)CNC(=O)[C@H](CC(=O)O)NC(=O)[C@@H](NC(=O)[C@@H](N)Cc1c[nH]cn1)[C@@H](C)O)[C@@H](C)O)[C@@H](C)O)C(C)C)C(=O)N[C@@H](CCCCN)C(=O)N[C@@H](CCC(N)=O)C(=O)N[C@@H](CCC(N)=O)C(=O)N[C@@H](CCC(=O)O)C(=O)O [mdGCRP] (H-HTDGMFTSDLTNYLDKMKAKNFVEWLAAIKQQE-OH) | > 10 | 0.175 ± 0.0418 | > 10 | 0.156 ± 0.0328 |
